Test results published in patent US11173151B2, “Substituted triazole derivatives and uses thereof” (BAYER AKTIENGESELLSCHAFT, priority 2017, dated 2021).

What was measured:
human V1a receptor = biological target: T1, human V1a receptor (Homo sapiens, UniProt P37288); experiment: Cellular in vitro assay for determining vasopressin receptor activity, V1a receptor cell line (CHO, aequorin luminescence); type: cell-based; conditions: for IC50: CHO cell line transfected with human V1a receptor, [Arg]-vasopressin at EC50 concentration, read-out: IC50 hV1a; for ratio IC50 hV2/hV1a: selectivity ratio IC50 hV2 / IC50 hV1a
T1 construct: expressed in transfected cells; host or cells: CHO K1 (ATCC), also stably transfected with a modified aequorin
Procedure, shortened: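 IC50 from inhibition of [Arg]-vasopressin (EC50 concentration)-evoked aequorin luminescence in CHO K1 cells, with 10-min compound pretreatment.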

human V2 receptor = biological target: T2, human V2 receptor (Homo sapiens, UniProt P30518); experiment: Cellular in vitro assay for determining vasopressin receptor activity, V2 receptor cell line (CHO, CRE-luciferase); type: cell-based; conditions: CHO cell line transfected with human V2 receptor; [Arg8]-vasopressin at EC50 concentration; read-out: IC50 hV2
T2 construct: expressed in transfected cells; host or cells: CHO K1 (ATCC) expressing firefly luciferase under a CRE-responsive promoter
T2 sequence (P30518 whole entry): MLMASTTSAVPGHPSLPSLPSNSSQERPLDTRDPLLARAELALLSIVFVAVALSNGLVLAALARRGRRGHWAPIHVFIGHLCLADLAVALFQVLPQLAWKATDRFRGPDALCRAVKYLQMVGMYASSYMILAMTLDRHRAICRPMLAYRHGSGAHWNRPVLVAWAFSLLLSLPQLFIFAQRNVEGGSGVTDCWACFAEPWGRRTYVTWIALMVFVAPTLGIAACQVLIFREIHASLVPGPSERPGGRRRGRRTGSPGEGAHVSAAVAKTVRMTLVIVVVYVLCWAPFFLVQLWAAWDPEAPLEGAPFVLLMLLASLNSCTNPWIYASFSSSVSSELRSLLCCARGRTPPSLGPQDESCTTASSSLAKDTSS

T1 sequence (P37288 whole entry): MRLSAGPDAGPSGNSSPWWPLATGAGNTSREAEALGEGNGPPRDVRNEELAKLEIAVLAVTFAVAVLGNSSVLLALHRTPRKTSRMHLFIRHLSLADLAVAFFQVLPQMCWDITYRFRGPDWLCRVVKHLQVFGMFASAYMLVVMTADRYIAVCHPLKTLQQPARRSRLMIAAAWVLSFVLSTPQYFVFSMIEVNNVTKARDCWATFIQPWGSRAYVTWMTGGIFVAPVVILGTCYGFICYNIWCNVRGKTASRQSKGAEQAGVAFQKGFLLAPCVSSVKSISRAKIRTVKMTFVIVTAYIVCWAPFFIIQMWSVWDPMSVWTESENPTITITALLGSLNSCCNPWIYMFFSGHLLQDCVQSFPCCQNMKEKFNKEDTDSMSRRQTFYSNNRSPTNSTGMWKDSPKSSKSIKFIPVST

Compound	IC50 (human V1a receptor)	ratio IC50 hV2/hV1a (human V1a receptor)	IC50 (human V2 receptor)
NC(=O)[C@H]1CC(F)(F)CN1C(=O)c1ncccc1-n1cnc(Cn2nc(-c3ccc(Cl)cc3)n(C[C@H](O)C(F)(F)F)c2=O)n1 [Example 433, 1-({3-[3-({3-(4-Chlorophenyl)-5-oxo-4-[(2S)-3,3,3-trifluoro-2-hydroxypropyl]-4,5-dihydro-1H-1,2,4-triazol-1-yl}methyl)-1H-1,2,4-triazol-1-yl]pyridin-2-yl}carbonyl)-4,4-difluoro-D-prolinamide]	71 nM	31.0	2200 nM
NC(=O)[C@@H]1CC(F)(F)CN1C(=O)c1ncccc1-n1cnc(Cn2nc(-c3ccc(Cl)cc3)n(C[C@H](O)C(F)(F)F)c2=O)n1 [Example 434, 1-({3-[3-({3-(4-Chlorophenyl)-5-oxo-4-[(2S)-3,3,3-trifluoro-2-hydroxypropyl]-4,5-dihydro-1H-1,2,4-triazol-1-yl}methyl)-1H-1,2,4-triazol-1-yl]pyridin-2-yl}carbonyl)-4,4-difluoro-L-prolinamide]	82 nM	32.9	2700 nM
O=C(c1ncccc1-n1cnc(Cn2nc(-c3ccc(Cl)cc3)n(C[C@H](O)C(F)(F)F)c2=O)n1)N1CCC(F)(F)C1 [Example 437, 5-(4-Chlorophenyl)-2-[(1-{2-[(3,3-difluoropyrrolidin-1-yl)carbonyl]pyridin-3-yl}-1H-1,2,4-triazol-3-yl)methyl]-4-[(2S)-3,3,3-trifluoro-2-hydroxypropyl]-2,4-dihydro-3H-1,2,4-triazol-3-one]	40.5 nM	91.4	3700 nM
CC1(C)CN(C(=O)c2ncccc2-n2cnc(Cn3nc(-c4ccc(Cl)cc4)n(C[C@H](O)C(F)(F)F)c3=O)n2)CCO1 [Example 438, 5-(4-Chlorophenyl)-2-[(1-{2-[(2,2-dimethylmorpholin-4-yl)carbonyl]pyridin-3-yl}-1H-1,2,4-triazol-3-yl)methyl]-4-[(2S)-3,3,3-trifluoro-2-hydroxypropyl]-2,4-dihydro-3H-1,2,4-triazol-3-one]	86 nM	103.5	8900 nM
O=C(NC1CC(F)(F)C1)c1ncccc1-n1cnc(Cn2nc(-c3ccc(Cl)cc3)n(C[C@H](O)C(F)(F)F)c2=O)n1 [Example 439, 3-[3-({3-(4-Chlorophenyl)-5-oxo-4-[(2S)-3,3,3-trifluoro-2-hydroxypropyl]-4,5-dihydro-1H-1,2,4-triazol-1-yl}methy)-1H-1,2,4-triazol-1-yl]-N-(3,3-difluorocyclobutyl)pyridine-2-carboxamide]	53.5 nM	24.0	1280 nM
O=C1CN(C(=O)c2ncccc2-n2cnc(Cn3nc(-c4ccc(Cl)cc4)n(C[C@H](O)C(F)(F)F)c3=O)n2)CCN1 [Example 443, 4-({3-[3-({3-(4-Chlorophenyl)-5-oxo-4-[(2S)-3,3,3-trifluoro-2-hydroxypropyl]-4,5-dihydro-1H-1,2,4-triazol-1-yl}methyl)-1H-1,2,4-triazol-1-yl]pyridin-2-yl}carbonyl)piperazin-2-one]	220 nM	102.3	22500 nM
O=C(c1ncccc1-n1cnc(Cn2nc(-c3ccc(Cl)cc3)n(C[C@H](O)C(F)(F)F)c2=O)n1)N1CCCCC1 [Example 445, 5-(4-Chlorophenyl)-2-({1-[2-(piperidin-1-ylcarbonyl)pyridin-3-yl]-1H-1,2,4-triazol-3-yl}methyl)-4-[(2S)-3,3,3-trifluoro-2-hydroxypropyl]-2,4-dihydro-3H-1,2,4-triazol-3-one]	20 nM	182.5	3650 nM
O=C(c1ncccc1-n1cnc(Cn2nc(-c3ccc(Cl)cc3)n(C[C@H](O)C(F)(F)F)c2=O)n1)N1CCOCC1 [Example 446, 5-(4-Chlorophenyl)-2-({1-[2-(morpholin-4-ylcarbonyl)pyridin-3-yl]-1H-1,2,4-triazol-3-yl}methyl)-4-[(2S)-3,3,3-trifluoro-2-hydroxypropyl]-2,4-dihydro-3H-1,2,4-triazol-3-one]	47 nM	457.4	21500 nM
